Results on 5 molecules are retold here after publication PMC9049077, “Unveiling the anti-cancer mechanism for half-sandwich and cyclometalated Ir(III)-based complexes with functionalized α-lipoic acid” (RSC Advances, 2020).

Data set [1] deals with A549 cells (human lung carcinoma). The data set is described as follows: MTT cytotoxicity assay, A549. Format: cell-based. How it is done:
(§1) The α-lipoic acid (LA) and the functionalized N^∧N-LA ligand were also evaluated for comparison. […]
(§2) Cell lines and culture conditions
(§3) A549, A549R, MCF-7, A2780, HeLa and LO2 cells were obtained from Experimental Animal Center of Sun Yat-Sen University (Guangzhou, China). Cells were routinely cultured in DMEM (Dulbecco’s modified Eagle’s medium, Gibco BRL) or RPMI 1640 (Roswell Park Memorial Institute medium 1640, Gibco BRL) medium containing 10% FBS (fetal bovine serum, Gibco BRL), 100 μg/mL streptomycin, and 100 U/mL penicillin (Gibco BRL). The cells were cultured in tissue culture flasks in a humidified incubator (BB 150 CO2 incubator, Thermo Fisher Scientific, USA), which provided an atmosphere of 5% CO2 and 95% air at a constant temperature of 37 °C. Cisplatin-resistant A549R […]
(§4) cells were cultured in RPMI 1640 with additional cisplatin to maintain the drug resistance.
(§5) Cytotoxicity assay (MTT assay)
(§6) The cytotoxicity of LA, N^N-LA and complexes synthesized towards various cancer cell lines was determined by MTT assay. After plating 5000 cells per well in 96-well plates, the cells were pre-incubated in drug-free media for 24 h at 37 °C to grow to confluence. The complexes were dissolved in DMSO (1%, v/v) just before the experiments, and diluted with fresh media immediately. Then, cells […]
(§7) that, 20 μL of MTT solution (5 mg/mL) was added to each well, and the plates were incubated for an additional 4 h. The medium was carefully removed and 150 μL DMSO was added per well. The plates were incubated for 10 min with shaking. The absorbance at 595 nm was measured using a microplate reader (LabServ K3, Part of Thermo Fisher Scientific, USA). Each well was triplicated to gain the mean values. IC 50 values quoted are mean ± SEM. […]
A general note: Formazan colour is commonly taken as a measure of viable cells.

Data set [2] has as its system A2780 cells (epithelial ovarian carcinoma). The data set is described as follows: MTT cytotoxicity assay, A2780. Format: cell-based. How it is done:
as §1, §2, §3, §4, §5
(§8) The cytotoxicity of LA, N^N-LA and complexes synthesized towards various cancer cell lines was determined by MTT assay. After plating 5000 cells per well in 96-well plates, the cells were pre-incubated in drug-free media for 24 h at 37 °C to grow to confluence. The complexes were dissolved in DMSO (1%, v/v) just before the experiments, and diluted with fresh media immediately. Then, cells were incubated with a series of different concentrations of the tested complexes for 44 h at 37 °C. After that, 20 μL of MTT solution (5 mg/mL) was added to each well, and the plates were incubated for an additional 4 h. The medium was carefully removed and 150 μL DMSO was added per well. The plates were incubated for 10 min with shaking. The absorbance at 595 nm was measured using a microplate reader (LabServ K3, Part of Thermo Fisher Scientific, USA). Each well was triplicated to gain the mean values. IC 50 values quoted are mean ± SEM. […]

Data set [3] relates to HeLa cells (human cervical carcinoma). The data set is described as follows: MTT cytotoxicity assay, HeLa. It is filed as cell-based. How it is done: as §1, §2, §3, §4, §5, §6, §7
The test system of data set [4] is MCF-7 cells (human breast carcinoma). The data set is described as follows: MTT cytotoxicity assay, MCF-7. Format: cell-based. How it is done:
as §1, §2, §3, §4, §5, §8

Data set [5] concerns A549R cells (cisplatin-resistant A549). Nature of the data set: MTT cytotoxicity assay, A549R. It is filed as cell-based, human. The procedure:
as §1, §2, §3, §4, §5, §8

Data set [6] relates to LO2 cells (human normal liver). The data set is described as follows: MTT cytotoxicity assay, LO2. Format: cell-based. How it is done: as §1, §2, §3, §4, §5, §8
Data set [7] relates to tested cancer cell lines. The data set is described as follows: MTT cytotoxicity assay, summary over the tested cell lines. Format: cell-based. To be noted: Homo sapiens, 48 h, read-out: IC50 over all tested cancer cell lines. The procedure:
as §1, §2, §3, §4, §5
The cytotoxicity of LA, N^N-LA and complexes synthesized towards various cancer cell lines was determined by MTT assay. After plating 5000 cells per well in 96-well plates, the cells were pre-incubated in drug-free media for 24 h at 37 °C to grow to confluence. […] The absorbance at 595 nm was measured using a microplate reader (LabServ K3, Part of Thermo Fisher Scientific, USA). […]

In data set [8] the test system is MCF-7 cells (human breast carcinoma). On the set-up: method as in earlier work. To be noted: 24 h incubation; ref 29 (supplementary reference 9); cited from earlier work.
For data set [9], the system named is A549 cells (human lung carcinoma). On the set-up: method as in earlier work. Conditions: 24 h incubation; ref 29 (supplementary reference 9); cited from earlier work.
For data set [10], the system named is HeLa cells (human cervical carcinoma). The arrangement: method as in earlier work. Conditions: 24 h incubation; ref 29 (supplementary reference 9); cited from earlier work.
The test system of data set [11] is MCF-7 cells (human breast carcinoma). Nature of the data set: MTT cytotoxicity assay, MCF-7. Format: cell-based. To be noted: 24 h incubation.
Data set [12] concerns A549 cells. Conditions: cited from earlier work.
The conditions of data set [13]: reported value; cited from earlier work.
[14] abbreviates: Homo sapiens, A549, 48 h incubation.

Where two headings read alike, the source gives them in different places. Some results are limits rather than exact numbers.

One may read the IC50 as the concentration that inhibits the measured activity by half.

On to `Cc1ccnc(-c2cc(CNC(=O)CCCCC3CCSS3)ccn2)c1` (stereo not drawn) [N^∧N-LA], for which the half-maximal inhibitory concentration (IC50) in data set [1] (48 h incubation) was greater than 200 µM; in data set [2] (48 h incubation), 84.5 ± 4.1 µM; in data set [3] (48 h incubation) it was 67.5 ± 5 µM; in [4] (48 h incubation), 139 ± 2.2 µM; in data set [5] (48 h incubation), greater than 200 µM; in data set [6] (48 h incubation), 96 ± 6.7 µM.
For `O=C(O)CCCCC1CCSS1` (stereo not drawn) [LA, α-lipoic acid], the half-inhibitory concentration (IC50) is greater than 200 µM in [1] (setting [14]); greater than 200 µM in [2] (Homo sapiens, A2780, 48 h incubation); greater than 200 µM in data set [3] (Homo sapiens, HeLa, 48 h incubation); greater than 200 µM in [4] (Homo sapiens, MCF7, 48 h incubation); greater than 200 µM in data set [5] (setting [14]); greater than 200 µM in [7]. This molecule displayed an IC50 in [6] (Homo sapiens, L02, 48 h incubation) greater than 200 µM.
As for `N.N.[Cl][Pt][Cl]` [cis-Pt, cisplatin, reference compound], the half-inhibitory concentration (IC50) is 22.4 ± 1.5 µM in [1] (24 h incubation); 10.5 ± 0.63 µM in data set [1] (48 h incubation); 4.32 ± 0.25 µM in data set [2] (48 h incubation); 31.4 ± 3 µM in [8]; 38.6 ± 0.9 µM in data set [9]; 17.9 ± 0.47 µM in data set [3] (24 h incubation). In addition, the IC50 is 7.59 ± 0.46 µM in data set [3] (48 h incubation); 8.7 ± 0.57 µM in [4] (48 h incubation); 17.9 ± 0.77 µM in data set [5] (48 h incubation); 20.2 ± 1.8 µM in data set [10]; 3.97 ± 0.25 µM in data set [6] (48 h incubation); 23.5 ± 0.82 µM in data set [11].
Turning to `C(=NC(c1ccccc1)(c1ccccc1)c1ccccc1)c1ccccn1.Cc1c(C)c(C)[c-](C)c1C.F[P-](F)(F)(F)(F)F.[Cl-].[Ir+3]` [[(η^5-Cp*)Ir(N^∧N)Cl]PF6, [(η^5-Cp*)Ir(N^∧N)Cl]PF6 (N^∧N = (triphenylmethyl)(pyridine-2-ylmethylene)amine)], in [12], the “Cellular uptake in A549 cells” value is listed as 4.5 ng per 10^6 cells. In data set [13], the Hydrolysis rate constant is 0.0084 min⁻¹.
For `Cc1ccnc(-c2cc(CN)ccn2)c1.F[P-](F)(F)(F)(F)F.[Ir+3].[c-]1ccccc1-c1ccccn1.[c-]1ccccc1-c1ccccn1` [Ir-NH2, [Ir(C^∧N)2(N^∧N-NH2)]PF6], the IC50 in [1] (48 h incubation) amounted to 11.2 ± 0.65 µM; in [2] (48 h incubation), 8.08 ± 0.2 µM; in data set [3] (48 h incubation) it was 21 ± 0.95 µM; in data set [4] (48 h incubation), 11.6 ± 0.48 µM; in data set [5] (48 h incubation), 19 ± 0.59 µM; in data set [6] (48 h incubation), 8.97 ± 0.55 µM.
